In US12030929B2, “Fusobacterium nucleatum amyloid-like FadA for diagnosis and treatment of Fn-mediated pathogenesis” (The Trustees of Columbia University in the City of New York, priority 2021, dated 2024):

Tests used:
[1] = tested on: HCT116 xenograft tumors; assay: CRC xenograft model; assay type: in vivo; settings: Fn 12230 washed in 1 mg/ml Congo Red, injected into tumors; IHC one week later; nude mice
Protocol: FIG. 5A-5D. Amyloid-like FadA mediates colonization in CRC and promotes tumor growth in vivo. 5A. Analysis of Fn colonization in mouse xenograft tumors by IHC. An inoculum of 5×10^6 HCT116 cells was injected subcutaneously and bilaterally into the nude mice. Once the tumors became visible (after 3-4 days), approximately 5×10^6 CFU of Fn 12230 washed in PBS or 1 mg/ml Congo Red (CR) were injected into the tumors. The tumors were extracted one week later, and the formalin-fixed and embedded (FFPE) tissues were stained with mAb 7H7. Note the brown stains in tumor injected with PBS-washed tumor, but not in CR-washed tumor. 5B. Effects of secreted amyloid-like FadA on tumor growth. HCT116 cells were injected into the nude mice as described above, followed by injection of 5×10^6 CFU of Fn 12230 (Fn, n=7), lam (n=3) or US1 (ΔfadA, n=4). The tumor volumes were measured immediately before bacteria injection (Day 0, designated as 100%), and at 3 days after injection (Day 3). The horizontal lines represent averages of tumor volumes (left panel). The individual tumors are shown (right panel). **p<0.01, ***p<0.001 (t-test). 5C. […] The tumor volumes were measured on Day 0 and Day 5 as described above. […] The tumor volumes were measured described above. […]
CRC xenograft model. […] The tumor length and width were measured using calipers and tumor volumes were calculated using the following formula: Volume=(width)2×length/2. […]

[2] = tested on: Fn binding to human CRC cells DLD1; assay: Cell culture attachment assay, DLD1; assay type: cell-based; settings: bacteria washed twice with 1 mg/ml Congo Red, MOI 50:1
[3] = tested on: Fn 12230; assay: Effects of Congo Red on Fn viability (OD600 and CFU); assay type: cell-based, Fusobacterium nucleatum; settings: incubation 48 or 72 hrs
Protocol: FIG. 10A-10B. 10A. Schematic illustration of preparation of detergent-resistant bacterial pellets and its use as scaffold for biofilm growth. 10B. Effects of Congo Red on Fn viability. Fn 12230 was incubated in PBS (top row), 10 mg/ml Congo Red (10 CR), or 50 mg/ml Congo Red (50 CR) for 48 hrs (left panel) or 72 hrs (right panel), followed by measurement of OD600 (OD) and viable counts (CFU).

Compound: Nc1c(/N=N/c2ccc(-c3ccc(/N=N/c4cc(S(=O)(=O)O)c5ccccc5c4N)cc3)cc2)cc(S(=O)(=O)O)c2ccccc12 [Congo Red]
- Fn colonization in xenograft tumors [1]: significantly inhibited Fn colonization in xenograft tumors
- effect on Fn binding to DLD1 ([2]; log phase): little or no effect on binding
- reduction of Fn binding to DLD1 ([2]; stationary phase): ~5 fold
- viability of Fn [3]: without affecting the viability of Fn
